# Reference: patent EP0094245A2, “Dihydronaphthyridine derivatives, their preparation and compositions containing them” (SANKYO COMPANY LIMITED, priority 1982, dated 1983)
# Columns and labels:
# [1] = tested on: Male Wistar rats; assay: Carrageenin oedema test for anti-inflammatory activity; type: in vivo; conditions: Rattus norvegicus, po, inhibitory rate, 100 mg/kg per os, paw volume 3 hours after carrageenin injection
# Protocol: Details of certain of the pharmacological tests are as follows: • Carrageenin oedema test for anti-inflammatory activity
# Male Wistar rats weighing 120-150 g were fasted overnight and then received a test compound per os as an aqueous tragacanth suspension. 30 minutes later, inflammation was induced by the subcutaneous injection of 0.05 ml of a 1% carrageenin suspension into the plantar tissue of a hind paw of each rat [Winter et al., Proc. Soc. Exp. Biol. Med., 111, 544 (1962)]. The anti-oedema activity was measured volumetrically, by assessing the response, as calculated from the following equation: [formula] where Vo and V represent, respectively, the paw volume immediately before and 3 hours after the carrageenin injection. The test compounds were administered at a dose of 100 mg/kg and the results are reported in the following Table as the inhibitory rate, that is the percentage inhibition of the […].
# [2] = tested on: Male Wistar rats; assay: Pain test for analgesic activity (modified Randall-Selitto, Brewers' yeast inflamed paw); type: in vivo; conditions: po; number of effective animals / total number of animals in group; 50 mg/kg orally; pain threshold 1 and 2 hours after administration; effective = at least twice mean pain threshold of controls
# Protocol: Pain test for analgesic activity
# This test was conducted according to a modification of the method reported by L.O. Randall and J.J. Selitto in Arch. Int. Pharmacodyn., 11, 409 (1959), proposed by Winter and Flatake (1957).
# Male Wistar rats of 4 weeks of age and weighing 60-90 g were injected with 0.1 ml of a 20% by weight suspension of Brewers' yeast in the right hind paw. […] Each of these was given orally a test compound as an aqueous tragacanth suspension at a dose of 50 mg/kg. 1 and 2 hours after administration of the test compound, the pain threshold was determined by observing pain responses (such as struggling or squeaking) when the inflamed or normal paw was subjected to pressure by a machine (Ugo-Basile). […] The results are reported as the number of effective animals as a proportion of the total number of animals in each group.
Structure (SMILES),inhibition in vivo at 100 mg/kg [1] [%],responders at 50 mg/kg [2] [%]
"COc1ccc2c(n1)C(C)=CC(C)(C)N2C(C)=O [Compound No. 27, 1-acetyl-6-methoxy-2,2,4-trimethyl-1,2-dihydro-1,5-naphthyridine]",53.3,20
"COc1ccc2c(n1)C(C)=CC(C)(C)N2C [Compound No. 25, 6-methoxy-1,2,2,4-tetramethyl-1,2-dihydro-1,5-naphthyridine]",54.8,40
"CC1=CC(C)(C)Nc2ccc(Oc3ccccc3)nc21 [Compound No. 5, 2,2,4-trimethyl-b-phenoxy-1,2-dihydro-1,5-naphthyridine]",53.6,60
"CC1=CC(C)(C)Nc2ccc(Oc3cccnc3)nc21 [compound 18, 2,2,4-trimethyl-6-(3-pyridyloxy)-1,2-dihydro-1,5-naphthyridine]",76,80
"CCOc1ccc2c(n1)C(C)=CC(C)(C)N2 [Compound No. 2, 6-ethoxy-2,2,4-trimethyl-1,2-dihydro-1,5-naphthyridine]",58.2,20
"COc1ccc2c(n1)C(C)=CC(C)(C)N2 [Compound No. 1, 6-methoxy-2,2,4-trimethyl-1,2-dihydro-1,5-naphthyridine]",62.6,60
"CC1=CC(C)(C)Nc2ccc(Cl)nc21 [Compound No. 13, 6-chloro-2,2,4-trimethyl-1,2-dihydro-1,5-naphthyridine]",56.6,60
"CCCCOc1ccc2c(n1)C(C)=CC(C)(C)N2 [Compound No. 4, 6-butoxy-2,2,4-trimethyl-1,2-dihydro-1,5-naphthyridine]",65.4,60
